The test system of one assay is DsaD-MfnH protein pair. The experiment in a line: Analytical-scale H/D exchange with purified DsaD and MfnH. As to conditions: 5 μM DsaD, 50 μM MfnH (1:10 DsaD:MfnH). The assay is classed as biochemical, Streptomyces scopuliridis; Streptomyces drozdowiczii. Here is the method: FIG. 4. Deuteration of L-Leu using purified DsaD (5 μM) and MfnH (50 μM) using the described procedure for analytical-scale H/D exchange. Results are reported as the average of 2 trials.
(§1) General procedure analytical scale deuteration reactions: α/β deuteration reactions were performed as follows. A 1 mL Eppendorf tube was charged with amino acid (10-20 mM final concentration), Na3PO4 buffer pD 8.4 (50 mM final concentration), PLP (100 μM final concentration), purified enzymes or appropriate lysate and D2O and to the appropriate final volume (typically 50 μL). Reactions were carried out at 37° C. for 8 h and quenched by the addition of 3 volumes of acetonitrile. Precipitated biomolecules were pelleted by centrifugation (16,000×g, 10 min) and samples were processed as described below.
In the original report by Li et al. describing DsaE, a homologous enzyme with 42% sequence identity, MfnH, was disclosed.^29 This homolog could operate with DsaD to catalyze Cβ-epimerization of Ile. Here, we test the ability of MfnH to productively catalyze H/D exchange reactions. We performed reactions with purified MfnH, DsaD (1:10 DsaD:MfnH), and L-Leu under the conditions described for DsaD/E-catalyzed reactions (FIG. 4). […] We also attempted isolation of MfnO, the native BCAT partner of MfnH, but produced only apo-enzyme.

For the next assay, the system named is DsaD/E lysates. The experiment in a line: Analytical-scale H/D exchange with pre-dialyzed DsaD and DsaE lysates. The assay is classed as biochemical, Streptomyces scopuliridis. As to conditions: lysates pre-dialyzed into D2O—Na3PO4 buffer pD 8.4, 99.9% D. Here is the method:
FIG. 6. Deuteration of L-Leu under conditions with minimal H2O contamination (99.9% D) using DsaD and DsaE lysates that were pre-dialyzed in 50 mM D2O—Na3PO4 (pD 8.4). Reactions performed using the described procedure for analytical-scale H/D exchange. Results are reported as the average of 3 trials.
as §1
Exchange of DsaD and DsaE into D2O—Na3PO4 buffer system: When necessary, clarified lysates and purified proteins were exchanged into a D2O-based buffer system containing 50 mM Na3PO4 (−) using a Slide-A-Lyzer MINI dialysis device (ThermoFisher) with a 3 KDa cutoff. A maximum of 500 μL of lysate or protein was added to the device and exchanged 3 times into the D2O buffer at 4° C. before setting up reactions.

Assay [1] addresses T1, DsaE with native E. coli BCATs (Escherichia coli, UniProt P0AB80).
T1 construct: DsaE can utilize native BCATs present at biological concentrations (without overexpression) to perform H/D exchange; made in house; host or cells: Clarified lysate of E. coli BL21(DE3) overexpressing DsaE; the BCAT is endogenous to the host
The assay can be described thus: Analytical-scale H/D exchange with DsaE lysate only. It counts as biochemical. The note with it: 5% v/v DsaE lysate, no DsaD. As for the experimental part:
(§2) FIG. 7. Deuteration of L-Leu using only DsaE lysate (5% v/v) with minimal H2O contamination (99.9% D). Reactions were performed using the described procedure for analytical-scale H/D exchange. Results are reported as the average of 3 trials.
(§3) In another version, DsaE operates with a BCAT enzyme other than DsaD to effect a Cα/Cβ-exchange. For example, DsaE clarified cell lysates (CCLs) can achieve Cα and Cβ-deuteration without the addition of the aminotransferase DsaD. Instead of relying on DsaD as a partner for catalysis, DsaE promiscuously interacts with native branched-chain amino acid aminotransferases (BCATs) expressed by E. coli (SEQ ID NO: 2) for primary metabolism. No overexpression of BCAT is necessary to induce this activity. We simply overexpressed partner protein DsaE and generated a clarified cell lysate from the resulting E. coli. […] The reaction is as follows:
(§4) General procedure analytical scale deuteration reactions: α/β deuteration reactions were performed as follows. A 1 mL Eppendorf tube was charged with amino acid (10-20 mM final concentration), Na3PO4 buffer pD 8.4 (50 mM final concentration), PLP (100 μM final concentration), purified enzymes or appropriate lysate and D2O and to the appropriate final volume (typically 50 μL). Reactions were carried out at 37° C. for 8 h and quenched by the addition of 3 volumes of acetonitrile. […]

Assay [2] deals with T2, DsaE with native E. coli BCATs (Escherichia coli, UniProt P0AB80, E236D).
T2 construct: DsaE can utilize native BCATs present at biological concentrations (without overexpression) to perform H/D exchange; made in house; host or cells: Clarified lysate of E. coli BL21(DE3) overexpressing DsaE; the BCAT is endogenous to the host
The description is as above. The assay is classed as biochemical. The note with it: 5% v/v DsaE lysate, no DsaD. Here is the method:
as §2, §3, §4

T1 sequence (P0AB80 2-309 E236D): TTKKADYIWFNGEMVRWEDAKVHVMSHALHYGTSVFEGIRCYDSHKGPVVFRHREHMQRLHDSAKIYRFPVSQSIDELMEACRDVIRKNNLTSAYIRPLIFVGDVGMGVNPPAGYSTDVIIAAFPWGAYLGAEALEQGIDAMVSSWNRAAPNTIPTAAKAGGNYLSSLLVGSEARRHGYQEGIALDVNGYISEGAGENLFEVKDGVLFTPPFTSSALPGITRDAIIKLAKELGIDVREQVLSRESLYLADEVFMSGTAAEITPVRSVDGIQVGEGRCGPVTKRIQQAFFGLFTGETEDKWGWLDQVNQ
T1 sequence (as listed by the source, change not shown): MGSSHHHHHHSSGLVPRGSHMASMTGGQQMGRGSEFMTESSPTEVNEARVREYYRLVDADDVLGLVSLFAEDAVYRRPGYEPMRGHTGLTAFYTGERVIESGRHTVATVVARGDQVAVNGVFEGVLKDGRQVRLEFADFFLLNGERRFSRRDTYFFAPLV
T2 sequence (P0AB80 2-309 E236D): as the sequence (P0AB80 2-309 E236D) above
T2 sequence (as listed by the source, stated change not applied): as the sequence (as listed by the source, change not shown) above

`CC(C)C[C@H](N)C(=O)O` [Leu, leucine]: in the assay on DsaD-MfnH protein pair, the “deuterium labeling at Cβ” value is 58% and the “exchange at Cα” value is 93%. In the assay with DsaD/E lysates, the “D-incorporation at Cα” value is greater than 99% and the “D-incorporation at Cβ” value was found to be 98%. In assay [1], the “deuterium incorporation at Cβ” value was 70%. Also, the “labeling at Cα” value in assay [2] is listed as greater than 95%.

The record behind these values is US12662688B2, “Site-selective deuteration of amino acids through dual protein catalysis” (Wisconsin Alumni Research Foundation, priority 2022, dated 2026).
